In article PMC11865921, “Effect of mono-guanidine-like derivatives on platelet aggregation and tumour cell induced platelet aggregation” (RSC Medicinal Chemistry, 2025):
Like-named read-outs stand apart in the source and are kept apart here.

Legend:
sigma σ1 receptor = molecular target: T1, sigma σ1 receptor; assay: PDSP radioligand competition binding
T1 construct: gene SIGMAR1; PDSP has often used guinea pig or rat tissue for sigma1
Excerpt: PDSP radioligand competition binding on sigma σ1 receptor

sigma σ2 receptor = molecular target: T2, sigma σ2 receptor; assay: PDSP radioligand competition binding; details: read-out: [drawing 1]
T2 construct: gene TMEM97; PDSP has often used rat PC12 cells or guinea pig tissue for sigma2
Excerpt: PDSP radioligand competition binding on sigma σ2 receptor

Ki (sigma σ1 receptor; read-out: [drawing 1]) [nM]	Ki (sigma σ2 receptor) [nM]	SMILES	Ki (sigma σ1 receptor; read-out: [drawing 2]) [nM]
266	547	N=C(N)Nc1ccc2c(n1)CCCC2 [compound 1]	
		c1cc2c(nc1NC1=NCCN1)CCCC2 [compound 2]	179
